Columns and labels:
[1] = biological target: T1, recombinant human secretory phospholipase A2 (Homo sapiens, UniProt P14555); assay: Inhibition test of human secretory phospholipase A2 (chromogenic assay, 96 well microtiterplate); assay type: biochemical; settings: sPLA2 50 ng/well, 40° C., 30 minutes, OD 405 nm, substrate 1,2-bis(heptanoylthio)-1,2-dideoxy-sn-glycero-3-phospholylcholine
T1 sequence (P14555 21-144): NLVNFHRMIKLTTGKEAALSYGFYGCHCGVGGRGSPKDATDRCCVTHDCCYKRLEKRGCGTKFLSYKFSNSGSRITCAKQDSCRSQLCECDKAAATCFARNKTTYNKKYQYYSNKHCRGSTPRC
Description: Inhibition Test of Human Secretory Phospholipase A2 Analytical Experiment
In order to identify and evaluate an inhibitor of recombinant human secretory phospholipase A2, the following chromogenic assay is utilized. The assay herein has been applied for high volume screening wherein 96 well microtiterplate is used. A general explanation for such assay is described in “Analysis of Human Synovial Fluid Phospholipase A2 on Short Chain Phosphatidylcholine-Mixed Micelles: Development of a Spectrophotometric Assay Suitable for a Micortiterplate Reader” (Analytical Biochemistry, 204, pp 190-197, 1992 by Laure. J. Reynolds. Lori L. Hughes and Edward A. Dennis: the disclosure of which is incorporated herein for reference.
1 mg of sPLA2 is dissolved in 1 ml of an enzyme buffer. Thereafter, the solution is maintained at 4° C.
In the assay, 5 μl of the solution is diluted with 1995 μl of the reaction buffer to be used.
198 mg of 5,5′-dithiobis-2-[…] (manufactured by Wako Pure Chemicals) is dissolved in 100 ml of H2O
pH 7.5 (adjusted with NaOH)
100 mg of racemic 1,2-bis(heptanoylthio)-1,2-dideoxy-sn-glycero-3-phospholylcholine is dissolved in 1 ml of chloroform.
624.9 mg of Triton-X 100 is dissolved in the reaction buffer.
Enzyme Reaction: for 1 Plate of Microtiterplate
1) 0.106 ml of the substrate solution is put in a centrifugal tube, and nitrogen gas is jetted to remove the solvent. 0.54 ml of Triton-X 100 is added thereto, the mixture is stirred, thereafter it is sonified in a bath type sonification to dissolve. To the resulting product are added 17.8 ml of the reaction buffer and 0.46 ml of DTNB, and 0.18 ml each of the admixture is poured to wells of the 96 well microtiterplate.
2) 10 μl of a test compound (or solvent blank) are added in accordance with alignment of plates which has been previously set.
3) Incubation is effected at 40° C. for 15 minutes.
4) 20 μl of an enzyme solution (sPLA2) which has been previously diluted (50 ng/well) are added to start reaction (40° C., 30 minutes).
5) Changes in absorbancy for 30 minutes are measured by a plate reader, and inhibition activity was calculated (OD: 405 nm).
6) IC50 was determined by plotting log concentration with respect to inhibition values within 10% to 90% inhibiting range.

| Structure (SMILES) | IC50 [1] | melting point |
| --- | --- | --- |
| COC(=O)COc1nc(C)nn2c(Cc3ccccc3)c(C)c(C(=O)C(N)=O)c12 [Compound I-1] | 203 nM |  |
| Cc1nc(OCC(=O)O)c2c(C(=O)C(N)=O)c(C)c(Cc3ccccc3)n2n1 [Compound I-2] | 13 nM | 195 to 197 °C |
| CCc1c(C(=O)C(N)=O)c2c(OCC(=O)OC)nc(C)nn2c1Cc1ccccc1 [Compound I-3] | 317 nM | 170 to 171 °C |
| CCc1c(C(=O)C(N)=O)c2c(OCC(=O)O)nc(C)nn2c1Cc1ccccc1 [Compound I-4] | 11 nM | 207 to 209 °C |
| CCc1c(C(=O)C(N)=O)c2c(OCC(=O)O)nc(C)nn2c1Cc1ccccc1-c1cccs1 [Compound I-6] | 11 nM | 184 to 186 °C |
| CCc1c(C(=O)C(N)=O)c2c(OCC(=O)OC)nc(C)nn2c1Cc1ccccc1-c1ccccc1 [Compound I-7] | 607 nM |  |
| CCc1c(C(=O)C(N)=O)c2c(OCC(=O)O)nc(C)nn2c1Cc1ccccc1-c1ccccc1 [Compound I-8] | 8 nM | 174 to 176 °C |
